From ChEMBL document CHEMBL1146911, “Synthesis and SAR of conformationally restricted inhibitors of soluble epoxide hydrolase” (Bioorg Med Chem Lett, 2006)

Test system: not listed separately
Experiment: AUC in dog at 0.3 mg/kg, po
Assay type: ADME, organism-based, Canis lupus familiaris
Set-up: dose 0.3 mg/kg, route oral
Conditions: plasma

Row | SMILES | AUC [µM·h]
1 | O=C(NCC1CCN(C(=O)c2ccccc2)CC1)NC12CC3CC(CC(C3)C1)C2 | 0.0055
2 | CCC(=O)N1CCC(NC(=O)NC23CC4CC(CC(C4)C2)C3)CC1 | 0.108
3 | CC(=O)N1CCC(CNC(=O)NC23CC4CC(CC(C4)C2)C3)CC1 | 0.0917
4 | CCCC(=O)N1CCC(NC(=O)NC23CC4CC(CC(C4)C2)C3)CC1 | 0.0417
5 | O=C(NC1CCN(C(=O)c2ccccn2)CC1)NC12CC3CC(CC(C3)C1)C2 | 0.0783
6 | O=C(O)CCCCCCCCCCCNC(=O)NC12CC3CC(CC(C3)C1)C2 | 0.0517
7 | O=C(NC1CCN(C(=O)c2ccccc2)CC1)NC12CC3CC(CC(C3)C1)C2 | 0.0102
8 | O=C(NC1CCN(C(=O)C(F)(F)F)CC1)NC12CC3CC(CC(C3)C1)C2 | 0.055
9 | CC(=O)N1CCC(NC(=O)NC23CC4CC(CC(C4)C2)C3)CC1 [AR9281] | 0.617

Molecular target: T1, Bifunctional epoxide hydrolase 2 (Homo sapiens, UniProt P34913)
T1 sequence (P34913 whole entry): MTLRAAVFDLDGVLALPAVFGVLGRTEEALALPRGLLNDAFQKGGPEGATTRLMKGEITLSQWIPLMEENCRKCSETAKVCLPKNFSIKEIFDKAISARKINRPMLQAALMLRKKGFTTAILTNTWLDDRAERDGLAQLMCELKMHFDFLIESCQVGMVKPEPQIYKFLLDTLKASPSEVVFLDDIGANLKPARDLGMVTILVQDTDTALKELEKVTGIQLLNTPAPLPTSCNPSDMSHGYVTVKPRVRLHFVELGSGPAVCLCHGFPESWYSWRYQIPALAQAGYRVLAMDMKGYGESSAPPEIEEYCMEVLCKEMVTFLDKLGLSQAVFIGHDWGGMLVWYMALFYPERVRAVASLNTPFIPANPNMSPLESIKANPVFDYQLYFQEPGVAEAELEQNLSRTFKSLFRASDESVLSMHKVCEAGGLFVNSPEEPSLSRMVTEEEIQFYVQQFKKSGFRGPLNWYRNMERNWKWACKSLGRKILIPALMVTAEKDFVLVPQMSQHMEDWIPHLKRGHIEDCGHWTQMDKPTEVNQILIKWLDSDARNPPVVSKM
Conditions: not given

Row | SMILES | IC50 [nM]
10 | O=C(NC1CCN(C(=O)c2cccnc2)CC1)NC12CC3CC(CC(C3)C1)C2 | 1.7
11 | O=C(NC1CCN(C(=O)c2ccncc2)CC1)NC12CC3CC(CC(C3)C1)C2 | 2.1
12 | O=C(NCC1CCN(C(=O)c2ccccc2C(=O)O)CC1)NC12CC3CC(CC(C3)C1)C2 | 400
13 | O=C(NCC1CCN(C(=O)c2ccncc2)CC1)NC12CC3CC(CC(C3)C1)C2 | 7.3
14 | O=C(O)CCCC(=O)N1CCC(CNC(=O)NC23CC4CC(CC(C4)C2)C3)CC1 | 41
15 | O=C(NCC1CCN(C(=O)c2cccnc2)CC1)NC12CC3CC(CC(C3)C1)C2 | 5.4
16 | O=C(NCC1CCN(C(=O)c2cccc(C(=O)O)c2)CC1)NC12CC3CC(CC(C3)C1)C2 | 43
